Source: patent US20010031275A1, “Sesamol inhibitor of delta-5-desaturase activity and uses therefor” (priority 1998, published 2001)
Where “and” joins values, the source holds several entries; their conditions need not be identical. Identical values can stand only once. Entries after “also recorded” stand apart in the source; their conditions may differ. Marks after values point to notes of the source that are not given here.

How the values were obtained:
Δ-5 desaturase enzyme = settings: Shimizu et al., Lipids 26:512-516 (1991); cited from earlier work
[1] = system: Δ-5 desaturation of ω6 fatty acids; assay: Fatty acid composition of liver membrane phospholipids from mice fed sesamol-supplemented safflower oil diet; type: in vivo, Balb/c mice; settings: 2 weeks; for DGLA (20:3ω6): control 1.4 ± 0.1; for Docosapentaenoic acid (22:5ω6): control 2.5 ± 0.4; for Δ-5 desaturation (20:4ω6/20:3): ratio Arachidonic acid/Dihomo-γ-linolenic acid, liver phospholipids, SO + 1% sesamol diet, control 18.0 ± 1.7
Protocol: The phospholipid fatty acid composition of the livers were determined, and the data represent mean mole percents of the total fatty acids (±s.d.). The levels of significance between the groups were determined using an unpaired student's t-test (p,0.05).
[…] They were allowed free access to drinking water and the experimental diets were fed at dusk, daily, between 4-5 PM. The weights of the body, and of the liver and spleen were determined on days 4, 7 and 14.
(§1) Diets: The AIN-76A fat-free powder along with 0.05% t-butyl hydroxy toluene, an antioxidant, was mixed with 5 wt % (10% Kcal) of safflower oil (Oilseeds International Ltd., Fresno, Calif.), partitioned into daily rations packaged in separate whirl-pack bags, flushed with N2, and stored at 4° C. Where indicated, these diets were supplemented with 1 wt % sesamol (Aldrich Chemical Company Inc. Milwaukee, Wis.).
Fatty acid analysis: Liver tissues were homogenized and extracted with a mixture of chloroform:methanol(2:1 v/v) containing 0.01% t-butylated hydroxytoluene as an antioxidant. The solvent fraction was isolated and evaporated to dryness under N2 and reconstituted in chloroform. The total phospholipids were separated by thin-layer chromatography on silica gel-H plates (Analtech Inc., Newark, Del.), and the fatty acid methyl esters were derived (Palombo et al., Lipids 29: 643-649 (1994)) and analyzed on a fused silica capillary column (100 m, 0.25 mm ID, 0.20 μm thickness; SP™-2560, Supelco Inc., Bellefonte, Pa.) using a gas chromatograph (5890 Series II) equipped with a mass selective detector (5971, Hewlett-Packard). The results were expressed as relative percent of identified fatty acids on a molar basis, using heptadecaenoic acid (17:0) as an internal standard.
The changes in the fatty acid composition (mean±s.d; mol. %) were determined in the liver membrane phospholipids from mice fed both the SO diets for 2 weeks (Table 1). […] Similar data were obtained in mice fed for as short as 4 days (data not shown).

[2] = system: TNF-α, IL-6, IL-10 and IL-12; assay: Endotoxin-induced in vivo production of cytokines (plasma ELISA) in mice fed sesamol-supplemented SO diet; design: species or system Balb/c mice; settings: SO + 1% sesamol diet, mean ± s.e.; for Tumor Necrosis Factor (TNF)-α: plasma at 1 hour following LPS, SO alone 3,042 ± 428; for Interleukin (IL)-6 / IL-10 / IL-12: plasma at 3 hours following LPS; for Interleukin (IL)-6: SO alone 143 ± 22; for IL-10: SO alone 262 ± 15; for IL-12: SO alone 6,355 ± 482
Protocol: Data represent the levels of […] (means±s.e.) in plasma samples obtained at 1 hour for TNF-α, and at 3 hours for IL-6, IL-10, and IL-12 following LPS exposure. The levels of significance in the differences between the two groups were determined using Dunnett Multiple Comparison test.
as §1
The plasma levels of TNF-α, IL-6, IL-10 and IL-12 were determined according to the manufacturer's instructions using enzyme-linked immunosorbent assay kits (Biosource International, Camarrilo, Calif.).

[3] = system: IL-6, IL-10, IL-12, TNF-α and PGE2; assay: Synthetic sesamol diet in endotoxic mice: plasma cytokines and PGE2 after LPS challenge; type: in vivo, Balb/c mice; settings: 5% SO + 0.25% synthetic sesamol diet, three weeks, 50 μg/mouse LPS for 90 minutes or three hours
From the text: Proinflammatory mediators play an important role during endotoxic shock. As described herein, naturally occurring sesamol inhibits Δ-5 desaturase activity, and also decreases the production of prostaglandin (PG)E2. No such scientific data are available for the synthetic, pure form of sesamol. Therefore, the effects of consuming synthetic sesamol on proinflammatory immune responses during septic shock were studied. Female Balb/c mice were fed diets supplemented with 5% safflower oil (SO) in the absence or presence of 0.25% synthetic sesamol for three weeks. After a challenge with 50 μg/mouse LPS for 90 minutes or three hours, the plasma levels (pg/ml) of interleukin (IL)-6, IL-10, IL-12, tumor necrosis factor (TNF)-α and PGE2 were determined.

[4] = Weights of body, liver and spleen of mice fed sesamol-supplemented diets; type: in vivo, Balb/c mice
Protocol: Animals: Six 8-week old, inbred, female Balb/c mice (Taconic Farms) were housed in our animal facility with a 12 hour day and 12 hour night cycle. They were allowed free access to drinking water and the experimental diets were fed at dusk, daily, between 4-5 PM. The weights of the body, and of the liver and spleen were determined on days 4, 7 and 14.

[5] = system: PGE2, IL-10, IL-6 and TNF-α; settings: fed mice, cited from earlier work
[6] = liver membrane phospholipids, 5 wt % SO + 1% sesamol diet, mean ± s.d., n=8
[7] = liver membrane phospholipids, 5 wt % SO + 1% sesamol diet, mean ± s.d., n=8, listed as SO + SESAMOL
[8] = mice fed sesamol-supplemented diets vs SO diets

Oc1cc2c(cc1[C@H]1OC[C@H]3[C@@H]1CO[C@@H]3c1ccc3c(c1)OCO3)OCO2 [sesaminol]
inhibition of the activity of Δ-5 desaturase enzyme in vitro (Δ-5 desaturase enzyme): inhibit

Oc1ccc2c(c1)OCO2 [sesamol, 3,4-methylenedioxyphenol]
Arachidonic acid (20:4ω6) [1, 6]: unchanged
Docosahexaenoic acid (22:6ω3) [1, 6]: 9.5 ± 0.4 mole percents
Oleic acid (18:1ω9) [1, 6]: 8.2 ± 1.1 mole percents
Palmitic acid (16:0) [1, 6]: 19.5 ± 1.4 mole percents
Stearic acid (18:0) [1, 6]: 19.2 ± 1.7 mole percents
Vaccenic acid (18:1ω7) [1, 6]: 2.6 ± 0.4 mole percents
DGLA (20:3ω6) [1, 6]: 1.6±0.1 mole percents and 1.6±1 mole percents
DGLA (20:3ω6) [1, 7]: 1.6 ± 0.1^a mole percents
Docosapentaenoic acid (22:5ω6) [1, 6]: 1.4±0.1 mole percents
Docosapentaenoic acid (22:5ω6) [1, 7]: 1.4 ± 0.1^a mole percents
Arachidonic acid (20:4ω6) [1, 7]: 24.9 ± 0.9 mole percents
Δ-5 desaturation (20:4ω6/20:3) [1]: 15.6±1.5
Δ-5 desaturation (20:4ω6/20:3) ([1]; listed as SO + SESAMOL): 15.6 ± 1.5^a
Tumor Necrosis Factor (TNF)-α [2]: not elevated; also recorded: unaffected; also recorded: did not differ markedly; also recorded: did not differ significantly
Tumor Necrosis Factor (TNF)-α ([2]; listed as SO + SESAMOL): 2,931 ± 461 pg/ml
Interleukin (IL)-6 [2]: 63 ± 11 ng/mL
Interleukin (IL)-6 ([2]; listed as SO + SESAMOL): 63 ± 11 ng/mL
IL-10 [2]: unaffected; also recorded: did not differ markedly; also recorded: did not differ significantly
IL-10 ([2]; listed as SO + SESAMOL): 236 ± 20 pg/mL
IL-12 [2]: did not differ markedly
IL-12 ([2]; listed as SO + SESAMOL): 6,620 ± 646 pg/ml
IL-10 ([3]; SO alone 314 ± 37): significantly higher
IL-10 ([3]; SO alone 314 ± 37, listed as SO + Sesamol): 490 ± 35 pg/mL
IL-6 ([3]; SO alone 418 ± 51): did not differ
IL-6 ([3]; SO alone 418 ± 51, listed as SO + Sesamol): 360 ± 32 pg/mL
PGE2 ([3]; SO alone 595 ± 68): markedly lower
PGE2 ([3]; SO alone 595 ± 68, listed as SO + Sesamol): 265 ± 39 pg/mL
TFN-α ([3]; SO alone 9,497 ± 1425): markedly lower
TFN-α ([3]; SO alone 9,497 ± 1425, listed as SO + Sesamol): 4,503 pg/ml
IL-12 ([3]; SO alone 11,165 ± 549): markedly lower
IL-12 ([3]; SO alone 11,165 ± 549, listed as SO + Sesamol): 8,969 pg/ml
weights of body [4, 8]: not significantly different
weights of livers [4, 8]: unaffected; also recorded: not significantly different
weights of the spleen [4, 8]: not significantly different
percent gain in body weights ([4]; sesamol-supplemented vs SO diet group): almost identical
inhibition of the activity of Δ-5 desaturase enzyme in vitro (Δ-5 desaturase enzyme): does not inhibit

c1cc2c(cc1[C@H]1OC[C@H]3[C@@H]1CO[C@@H]3c1ccc3c(c1)OCO3)OCO2 [sesamin]
inhibition of the activity of Δ-5 desaturase enzyme in vitro (Δ-5 desaturase enzyme): inhibit
LPS-induced production of IL-6 ([5]; Chavali et al. 1997): lower
LPS-induced production of IL-10 ([5]; Chavali et al. 1997): lower
LPS-induced production of PGE2 ([5]; Chavali et al. 1997): lower
LPS-induced production of TNF-α ([5]; Chavali et al.): elevated; also recorded: higher

c1cc2c(cc1O[C@H]1OC[C@H]3[C@@H]1CO[C@@H]3c1ccc3c(c1)OCO3)OCO2 [sesamolin]
inhibition of the activity of Δ-5 desaturase enzyme in vitro (Δ-5 desaturase enzyme): inhibit
